# Laboratory results reported in patent US9597407B2, “Targeted antimicrobial moieties” (C3 Jian, Inc., priority 2009, dated 2017).
# “Also recorded” adds a separate entry of the source. Ends that are not written are not given here.
# Legend:
# [1] = test system: bacteria; assay: Binding of targeting peptides to microorganisms (Table 3); conditions: preferably 1x PBS; for Target(s) (microorganism bound by the targeting peptide) / Target(s) (microorganisms bound by the targeting peptide): peptide binding in aqueous buffers that varied depending on peptide solubility
# [2] = test system: microorganisms; assay: Peptide activities: binding, antimicrobial, growth or phenotype altering (Table 8)
# From the text: In certain embodiments, peptides described herein can have multiple activities. Thus for example, a peptide can have both binding/targeting activity and antimicrobial activity. Such peptides can be used, e.g., in a chimeric construct, for any or all of these properties. Thus, for example, a peptide designated “B” in Table 8 can be used as a targeting peptide. If it is also designated G or M it can also be used for antimicrobial activity.
# [3] = test system: microorganisms; assay: Morphology, biofilm and growth disruption by peptides (Table 5); type: cell-based; design: key: A: Peptide aggregates; B: Less hyphal formation; Clumps; Diffuse clumps and small polyps; F: Diffuse growth; H: Thin; I: Growth inhibition; Microcolony formation; Rippled; Small polyps; Thick; W: Halo formation on top, microlonies on bottom
# From the text: In certain embodiments peptides that induce alterations in phenotype or other biological activities can also be used as antimicrobial effector moieties.
# [4] = microorganism the targeting peptide binds, binding in aqueous buffers that varied with peptide solubility
# [5] = microorganism bound by the targeting peptide, binding in aqueous buffers chosen by peptide solubility
Substance,"Target(s) [1, 4]",Activities [2],"Organism, effect ([3]; MRSA)","Organism, effect (morphology, biofilm and growth disruption) ([3]; S. pneumoniae)",Target(s) (microorganisms bound by the targeting peptide) [1],further results
PF-025 (LLIIFRLWLELKWKNKK; Peptide with targeting and/or antimicrobial activity),S. epidermidis and M. luteus and P. mirabilis and E. coli and P. aeruginosa and MRSA and E. faecalis and C. jejuni,G B,MRSA (R),–,–,"Organism, effect ([3]; C. jeikeium): C. jeikeium (A); Organism, effect ([3]; M. luteus): M. luteus (A); Organism, effect ([3]; S. epidermidis): S. epidermidis (S)"
PF-744 (chain 1 LGVGTFVGKVLIKNQQKQKSKKKAQ; chain 2 LGVGTFVGKVLIKNQQKQKSKKKAQ; Peptide with targeting and/or antimicrobial activity),–,G B,–,S. pneumoniae (H),–,Target(s) (microorganism bound by the targeting peptide) [1]: S. epidermidis and M. luteus and E. coli and MRSA and S. pneumoniae and E. faecalis and C. jeikeium
PF-036 (ILNRLSRIVSNEVTSLIYSLK; Peptide with targeting and/or antimicrobial activity),S. epidermidis and M. luteus and P. mirabilis and E. coli and C. albicans and MRSA and S. pneumoniae and C. jejuni,G B,MRSA (R),–,–,"Organism, effect ([3]; C. jeikeium): C. jeikeium (A); Organism, effect ([3]; M. luteus): M. luteus (A); Organism, effect ([3]; S. epidermidis): S. epidermidis (S)"
PF-519 (YLVYSGVLATAAAF-NH2),–,G B,–,S. pneumoniae (S),M. luteus; also recorded: E. faecalis; also recorded: C. jeikeium,"Organism, effect (morphology, biofilm and growth disruption) ([3]; E. coli): E. coli (R); Organism, effect (morphology, biofilm and growth disruption) ([3]; E. faecalis): E. faecalis (C); Organism, effect (morphology, biofilm and growth disruption) ([3]; MRSA): MRSA (C)"
PF-015 (SIDKRNLYNLKYYE; Peptide with targeting and/or antimicrobial activity),E. faecalis; also recorded: C. jeikeium,G B,MRSA (W),–,–,–
PF-617 (chain 1 PMNAAEPE; chain 2 PMNAAEPE; Peptide with targeting and/or antimicrobial activity),–,G B,–,S. pneumoniae (I),–,"Target(s) (microorganism bound by the targeting peptide) [1]: P. aeruginosa; also recorded: C. albicans; Organism, effect (morphology, biofilm and growth disruption) ([3]; C. albicans): C. albicans (H); Organism, effect (morphology, biofilm and growth disruption) ([3]; E. faecalis): E. faecalis (H)"
PF-005 (chain 1 MESIFKIKLMNGICRSENMNMKKKNKGEKI; chain 2 MESIFKIKLMNGICRSENMNMKKKNKGEKI; Peptide with targeting and/or antimicrobial activity),S. epidermidis and E. coli and MRSA and S. pneumoniae and E. faecalis,G B,–,–,–,"Organism, effect ([3]; B. subtilis): B. subtilis (C); Organism, effect ([3]; S. pneumoniae): S. pneumoniae (H)"
PF-029 (NSTNE; Peptide with targeting and/or antimicrobial activity),S. epidermidis; also recorded: M. luteus; also recorded: C. albicans; also recorded: C. jejuni,G B,MRSA (M),–,–,–
PF-073 (CPSVTMDACALLQKFDFCNNISHFRHFFAIKQPIER; Peptide with targeting and/or antimicrobial activity),–,G B,MRSA (M),–,–,"Target(s) [1, 5]: S. epidermidis and M. luteus and P. aeruginosa and C. albicans and MRSA and S. pneumoniae and E. faecalis; Organism, effect ([3]; C. jeikeium): C. jeikeium (D); Organism, effect ([3]; C. jejuni): C. jejuni (D); Organism, effect ([3]; M. luteus): M. luteus (R); Organism, effect ([3]; S. epidermidis): S. epidermidis (R); Organism, effect ([3]; S. pneumoniae): S. pneumoniae (D)"
PF-572 (WRASKGLPGFKAG; Peptide with targeting and/or antimicrobial activity),–,G B,–,S. pneumoniae (R),S. epidermidis; also recorded: M. luteus; also recorded: E. coli; also recorded: S. pneumoniae; also recorded: C. jeikeium,"Organism, effect (morphology, biofilm and growth disruption) ([3]; B. subtilis): B. subtilis (D)"
PF-127 (MLRYLSLFAVGLATGYAWGWIDGLAASLAV; Peptide with targeting and/or antimicrobial activity),–,G B,–,–,–,"Target(s) [1, 5]: S. epidermidis and M. luteus and E. coli and P. aeruginosa and C. albicans and MRSA and S. pneumoniae and E. faecalis; Organism, effect ([3]; C. jeikeium): C. jeikeium (A); Organism, effect ([3]; M. luteus): M. luteus (A); Organism, effect ([3]; S. epidermidis): S. epidermidis (M)"
PF-C135 (KNTHAYLRVLRLSSLILSYQASVYPLFAYLCQQKDY; Peptide with targeting and/or antimicrobial activity),–,G B,–,–,–,"Target(s) (microorganism bound by the targeting peptide) [1]: A. naeslundii; also recorded: F. nucleatum; also recorded: P. gingivalis; also recorded: S. mutans; Organism, effect (morphology, biofilm and growth disruption) ([3]; F. nucleatum): F. nucleatum (C); Organism, effect (morphology, biofilm and growth disruption) ([3]; S. mutans): S. mutans (F)"
PF-587 (ASGKYQSYLLNVYVDSKKDRLDIFDKLKAKAKFVL; Peptide with targeting and/or antimicrobial activity),–,G B,–,S. pneumoniae (C),S. epidermidis and M. luteus and E. coli and MRSA and S. pneumoniae and E. faecalis and C. jeikeium,–
PF-589 (APLRIDEIRNSNVIDEVLDCAPKKQEHFFVVPKIIE; Peptide with targeting and/or antimicrobial activity),–,G B,–,S. pneumoniae (C),S. epidermidis and C. albicans and MRSA and S. pneumoniae,"Organism, effect (morphology, biofilm and growth disruption) ([3]; MRSA): MRSA (M)"
PF-549 (TGIGPIARPIEHGLDS; Peptide with targeting and/or antimicrobial activity),–,G B,–,–,E. coli; also recorded: C. albicans; also recorded: S. pneumoniae; also recorded: C. jeikeium,"Organism, effect (morphology, biofilm and growth disruption) ([3]; B. subtilis): B. subtilis (D); Organism, effect (morphology, biofilm and growth disruption) ([3]; MRSA): MRSA (C)"
PF-370 (VIFLHKESGNLKEIFY; Peptide with targeting and/or antimicrobial activity),–,G B,MRSA (C),–,–,"Target(s) [1, 5]: S. epidermidis; also recorded: E. coli; also recorded: P. aeruginosa; also recorded: E. faecalis; also recorded: C. jejuni; Organism, effect ([3]; E. coli): E. coli (R); Organism, effect ([3]; S. epidermidis): S. epidermidis (C)"
PF-037 (MTKKRRYDTTEFGLAHSMTAKITLHQALYK; Peptide with targeting and/or antimicrobial activity),S. epidermidis and M. luteus and P. aeruginosa and C. albicans and MRSA and S. pneumoniae and E. faecalis and C. jeikeium,G B,MRSA (R),–,–,"Organism, effect ([3]; C. jeikeium): C. jeikeium (D); Organism, effect ([3]; M. luteus): M. luteus (C); Organism, effect ([3]; S. epidermidis): S. epidermidis (D)"
PF-626 (chain 1 KYDFDDFEPEEA; chain 2 KYDFDDFEPEEA; Peptide with targeting and/or antimicrobial activity),–,G B,–,S. pneumoniae (H),–,Target(s) (microorganism bound by the targeting peptide) [1]: S. epidermidis and M. luteus and E. coli and C. albicans and MRSA and S. pneumoniae and E. faecalis and C. jeikeium
PF-362 (NIERILKEKVWMIRCVE; Peptide with targeting and/or antimicrobial activity),–,G B,MRSA (C),–,–,"Target(s) [1, 5]: S. epidermidis; also recorded: E. coli; also recorded: P. aeruginosa; also recorded: C. albicans; also recorded: E. faecalis; also recorded: C. jejuni; Organism, effect ([3]; E. coli): E. coli (C)"
PF-048 (LYFAFKKYQERVNQAPNIEY; Peptide with targeting and/or antimicrobial activity),S. epidermidis and M. luteus and E. coli and MRSA and C. jeikeium and C. jejuni,G B,MRSA (W),–,–,"Organism, effect ([3]; C. jeikeium): C. jeikeium (S); Organism, effect ([3]; S. epidermidis): S. epidermidis (D)"
PF-049 (AYYLKRREEKGK; Peptide with targeting and/or antimicrobial activity),S. epidermidis and MRSA and C. jeikeium and C. jejuni,G B,MRSA (S),–,–,–
PF-551 (QVKEKRREIELQFRDAEKKLEASVQAE; Peptide with targeting and/or antimicrobial activity),–,G B,–,–,S. pneumoniae,"Organism, effect (morphology, biofilm and growth disruption) ([3]; MRSA): MRSA (C)"
PF-461 (MTLAIKNCSVTKCLGFGDFVNDDSDSYFDA; Peptide with targeting and/or antimicrobial activity),–,G B,–,S. pneumoniae (R),E. coli; also recorded: S. pneumoniae,"Organism, effect (morphology, biofilm and growth disruption) ([3]; E. faecalis): E. faecalis (A); Organism, effect (morphology, biofilm and growth disruption) ([3]; MRSA): MRSA (R)"
PF-445 (ASMTKRLKLAMSKV; Peptide with targeting and/or antimicrobial activity),–,G B,–,S. pneumoniae (M),M. luteus; also recorded: S. pneumoniae; also recorded: C. jeikeium,–
